From patent publication US20230157283A1, “COMPOSITIONS AND METHODS FOR INHIBITING A FUNGAL PATHOGEN” (Tu Biomics, Inc., priority 2020, published 2023)

Assays:
Sclerotium cepivorum = experiment: Example 1: in vitro growth on agar plates containing organic acids; type: cell-based; design: Sclerotium Treated (in vitro growth, mean±SE): unit not given here; details: for Sclerotium Treated (in vitro growth, mean±SE): n=4 plates
Protocol: (§1) In FIG. 1, n.s. indicates “not significant”, ppm indicates “parts per million”; L and (S) indicate levorotatory and sinister rotatory, respectively, and asterisks are used to indicate degrees of statistical significance according to standard conventions. 2-fold concentrated compositions of lactate and acetate were diluted 1:1 with a deionized water + agar solution to prepare agar plates
(§2) In a first round of experiments, the effect of acetate, and dextrorotary (d), levorotary (1), and racemic mixtures of enantiomers of lactate alone, or in combination with acetate was evaluated on the growth of Sclerotium cepivorum and Botrytis cinera (Tables 1A and 1B).
(§3) The effects of higher concentrations of acetate and lactate L (S) on growth was evaluated (Tables 2A and 2B).

Botrytis cinerea = experiment: as above; type: cell-based; design: Botrytis Treated (in vitro growth, mean±SE): unit not given here; details: for Botrytis Treated (in vitro growth, mean±SE): n=4 plates
Protocol: as §1, §2, §3

[1] = 175 ppm, 7 days after inoculation
[2] = 175 ppm, 7 days, negative = inhibition, n.s./bracketed = not significant
[3] = 350 ppm, 7 days after inoculation
[4] = 350 ppm, 7 days, negative = inhibition, n.s./bracketed = not significant
[5] = first round, concentrations of Tables 1A and 1B
[6] = 175 ppm, 7 days, n.s./bracketed = not significant
[7] = 350 ppm, 7 days, n.s./bracketed = not significant
[8] = 200 ppm, 7 days after inoculation
[9] = 400 ppm, 7 days after inoculation
[10] = 600 ppm, 7 days, second round (higher concentrations)
[11] = 600 ppm, 7 days, second round, n.s./bracketed = not significant
[12] = higher concentrations, Tables 2A and 2B

SMILES	Sclerotium Treated (in vitro growth, mean±SE) (Sclerotium cepivorum; [1])	% Efficacy (percentage of mean growth in control plates) (Sclerotium cepivorum; [2])	Sclerotium Treated (in vitro growth, mean±SE) (Sclerotium cepivorum; [3])	% Efficacy (percentage of mean growth in control plates) (Sclerotium cepivorum; [4])	effect on growth of S. cepivorum (in words) (Sclerotium cepivorum; [5])	Botrytis Treated (in vitro growth, mean±SE) (Botrytis cinerea; [1])	% Efficacy (percentage of mean growth in control plates) (Botrytis cinerea; [6])	Botrytis Treated (in vitro growth, mean±SE) (Botrytis cinerea; [3])	% Efficacy (percentage of mean growth in control plates) (Botrytis cinerea; [7])	Sclerotium Treated (in vitro growth, mean±SE) (Sclerotium cepivorum; [10])	% Efficacy (percentage of mean growth in control plates) (Sclerotium cepivorum; [11])	effect on growth of S. cepivorum (in words) (Sclerotium cepivorum; [12])	further results
CC(O)C(=O)O (racemic) [Lactate DL (RS racemic mix), reference compound]	2.06 ± 1.18	-72%	6.71 ± 2.90	n.s.	inhibited growth	16.81 ± 1.23	n.s.	26.15 ± 3.37	n.s.	–	–	–	–
CC(=O)O [Acetate, acetic acid]	–	–	–	–	significantly inhibited growth	–	–	–	–	2.41 ± 0.57	-86%	increased with acetate concentration at all concentrations evaluated	Sclerotium Treated (in vitro growth, mean±SE) (Sclerotium cepivorum; [8]): 3.63 ± 2.30; % Efficacy (percentage of mean growth in control plates) (Sclerotium cepivorum; 200 ppm, 7 days, negative = inhibition, n.s./bracketed = not significant): n.s. [23] %; Sclerotium Treated (in vitro growth, mean±SE) (Sclerotium cepivorum; [9]): 2.62 ± 1.85; % Efficacy (percentage of mean growth in control plates) (Sclerotium cepivorum; 400 ppm, 7 days, negative = inhibition, n.s./bracketed = not significant): n.s. [-39] %; % Efficacy (percentage of mean growth in control plates) (Sclerotium cepivorum; 800 ppm, 7 days, second round): -97%; Sclerotium Treated (in vitro growth, mean±SE) (Sclerotium cepivorum; 800 ppm, 7 days, second round): 0.51 ± 0.20; Botrytis Treated (in vitro growth, mean±SE) (Botrytis cinerea; [8]): 16.19 ± 1.09; % Efficacy (percentage of mean growth in control plates) (Botrytis cinerea; 200 ppm, 7 days, negative = inhibition): -33%; Botrytis Treated (in vitro growth, mean±SE) (Botrytis cinerea; [9]): 12.37 ± 0.79; % Efficacy (percentage of mean growth in control plates) (Botrytis cinerea; 400 ppm, 7 days, negative = inhibition): -49%; % Efficacy (percentage of mean growth in control plates) (Botrytis cinerea; [11]): n.s.[11] %; Botrytis Treated (in vitro growth, mean±SE) (Botrytis cinerea; 600 ppm, 7 days, second round): 22.25 ± 4.12; % Efficacy (percentage of mean growth in control plates) (Botrytis cinerea; 800 ppm, 7 days, second round, n.s./bracketed = not significant): n.s.[13] %; Botrytis Treated (in vitro growth, mean±SE) (Botrytis cinerea; 800 ppm, 7 days, second round): 22.73 ± 4.69; Botrytis Treated (in vitro growth, mean±SE) (Botrytis cinerea; 1000 ppm, 7 days, second round): 29.75 ± 3.76; % Efficacy (percentage of mean growth in control plates) (Botrytis cinerea; 1000 ppm, 7 days, second round, positive = more growth): 48%; effect on growth of B. cinerea (in words) (Botrytis cinerea; [5]): significantly inhibited growth; effect on growth of B. cinerea (in words) (Botrytis cinerea; summary of FIG. 1): inhibited growth of B. cinera at lower concentrations, but served as a carbon source at higher concentrations
C[C@@H](O)C(=O)O [Lactate D (R), D-lactic acid, reference compound]	14.09 ± 5.75	n.s.	10.68 ± 3.19	n.s.	appeared to act as a carbon source	23.42 ± 1.23	49%	23.82 ± 2.65	[35] %	–	–	–	–
C[C@H](O)C(=O)O [Lactate L (S), L-lactic acid]	5.73 ± 1.72	[-43] %	5.17 ± 1.85	[-46] %	inhibited growth	23.59 ± 2.66	[38] %	27.71 ± 4.97	[71] %	20.50 ± 4.10	n.s.[18] %	not effective	% Efficacy (percentage of mean growth in control plates) (Sclerotium cepivorum; 450 ppm, 7 days, second round, n.s./bracketed = not significant): n.s.[-7] %; Sclerotium Treated (in vitro growth, mean±SE) (Sclerotium cepivorum; 450 ppm, 7 days, second round): 16.08 ± 3.55; effect on growth of S. cepivorum (in words) (Sclerotium cepivorum; summary of FIG. 1): inhibited growth of S. cepivorum at lower concentrations, but served as a carbon source at higher concentrations
